Laboratory results published in patent publication US11116757B2 (priority 2015, dated 2021).

These compounds were tested against DCN1-UBC12 interaction (Homo sapiens (Human), UniProt Q96GG9) (assay: biochemical). Details: Table 4, commercial compounds; read-out: TR-FRET IC50.
Type: binding

Chain of DCN1-UBC12 interaction (Q96GG9 60-248 limits assumed): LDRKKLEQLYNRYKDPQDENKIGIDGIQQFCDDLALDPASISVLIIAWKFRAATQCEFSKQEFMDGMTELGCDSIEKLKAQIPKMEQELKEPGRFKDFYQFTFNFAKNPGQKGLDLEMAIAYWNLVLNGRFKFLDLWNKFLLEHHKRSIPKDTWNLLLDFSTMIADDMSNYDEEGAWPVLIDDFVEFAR

| Compound | IC50 |
| --- | --- |
| Cc1ccccc1/C=C/C(=O)N1CCC(C(=O)Nc2ccc3c(c2)OCO3)CC1 [C61] | > 67.6 µM |
| O=C(Nc1ccc(Cl)c(C(F)(F)F)c1)C1CCN(C(=O)c2ccccc2Cl)CC1 [C7] | > 46 µM |
| COc1ccc(NC(=O)C2CCN(C(=O)N3CCOc4ccccc43)CC2)cc1 [C53] | > 67.6 µM |
| Cc1ccc(NC(=O)C2CCN(C(=O)c3ccccc3C)CC2)cc1C [C22] | > 67.6 µM |
| CSc1cccc(NC(=O)C2CCN(C(=O)c3ccc(F)cc3)CC2)c1 [C4] | 26.3 µM |
| O=C(Nc1cccc(C(F)(F)F)c1)C1CCN(C(=O)c2ccc(F)cc2)CC1 [C2] | 8.84 µM |
| COc1ccc(C(=O)N2CCC(C(=O)Nc3cc(OC)ccc3OC)CC2)cc1 [C11] | > 48.7 µM |
| Cc1cccc(NC(=O)C2CCN(C(=O)c3cccc(F)c3)CC2)c1 [C44] | > 67.6 µM |
| COc1ccc(C(=O)N2CCC(C(=O)Nc3ccc(F)c(Cl)c3)CC2)cc1 [C16] | > 67.6 µM |
| CSc1cccc(NC(=O)C2CCN(C(=O)c3cnn(-c4ccccc4)c3-n3cccc3)CC2)c1 [C9] | > 76.7 µM |
| CCc1ccc(NC(=O)C2CCN(C(=O)N3CC(C)Oc4ccccc43)CC2)cc1 (centres unmarked) [C52] | > 67.6 µM |
| O=C(Nc1cccc(C(F)(F)F)c1)C1CCN(C(=O)Cc2ccccc2)CC1 [C12] | > 65.9 µM |
| CC(=O)Nc1cccc(NC(=O)C2CCN(C(=O)c3ccco3)CC2)c1 [C39] | > 67.6 µM |
| COc1ccc(NC(=O)C2CCN(C(=O)c3cnn(-c4ccccc4)c3-n3cccc3)CC2)cc1 [C49] | > 67.6 µM |
| CCc1ccccc1NC(=O)C1CCN(C(=O)c2ccc(F)cc2)CC1 [C67] | > 75.6 µM |
| COCCC(=O)N1CCC(C(=O)Nc2ccc(-c3cc4ccccc4[nH]3)cc2)CC1 [C45] | > 67.6 µM |
| O=C(Nc1ccc(F)c(Cl)c1)C1CCN(C(=O)c2ccc(Cl)cc2)CC1 [C66] | > 75.6 µM |

Same assay, conditions: Table 6, commercial compounds; read-out: TR-FRET IC50

| Compound | IC50 |
| --- | --- |
| C=CCNC(=O)c1cnn(-c2ncc(C)c(-c3cccs3)n2)c1C [E59] | > 67.6 µM |
| COCc1c(C(=O)N2CCN(C(C)C)CC2)cnn1-c1ncc(C)c(-c2cccs2)n1 [E21] | 49.2 µM |
| Cc1cnc(-n2ncc(C(=O)N3CCN(C(C)C)CC3)c2C2CC2)nc1-c1cccs1 [E40] | > 67.6 µM |
| Cc1cnc(-n2ncc(C(=O)NCCC(C)C)c2C)nc1-c1cccs1 [E29] | > 67.6 µM |
| CCN(CC)CCNC(=O)c1cnn(-c2nccc(-c3cccs3)n2)c1C(C)C [E19] | 42.1 µM |
| CCN(CC)CCNC(=O)c1cnn(-c2nccc(-c3cccs3)n2)c1C [E54] | > 67.6 µM |
| CCN(CC)CCN(CC)C(=O)c1cnn(-c2nccc(-c3cccs3)n2)c1C [E3] | 7.77 µM |
| COCCN1CCN(C(=O)c2cnn(-c3ncc(C)c(-c4cccs4)n3)c2C2CC2)CC1 [E30] | > 67.6 µM |
| CC(=O)N1CCN(C(=O)c2cnn(-c3ncc(C)c(-c4cccs4)n3)c2C2CC2)CC1 [E50] | > 67.6 µM |
| CCN(CC)C(=O)c1cnn(-c2nccc(-c3cccs3)n2)c1C [E25] | 63 µM |

Same assay, conditions: Table 7, commercial compounds; read-out: TR-FRET IC50

| Compound | IC50 |
| --- | --- |
| CCOc1ccc(C2c3c(C)nn(C)c3NC(=O)C2NC(=O)c2cccc(C)c2)cc1 (centres unmarked) [F23] | > 67.6 µM |
| Cc1nn(C)c2c1C(c1ccc(C(C)(C)C)cc1)C(NC(=O)c1ccccc1)C(=O)N2 (centres unmarked) [F11] | > 67.6 µM |
| CCOc1ccc(C2c3c(C)nn(C)c3NC(=O)C2NC(=O)c2ccc(Cl)cc2)cc1OC (centres unmarked) [F25] | > 67.6 µM |

Same assay, conditions: read-out: TR-FRET IC50

| Compound | IC50 |
| --- | --- |
| CCCN1CCC(N(Cc2ccco2)C(=O)Nc2cccc(C(F)(F)F)c2)CC1 [A77, 1-(Furan-2-Ylmethyl)-1-(1-Propylpiperidin-4-yl)-3-(3-(Trifluoromethyl)Phenyl)Urea] | 0.798 µM |
| CCCC(C)N1CCC(N(Cc2ccc3c(c2)OCO3)C(=O)Nc2ccc(F)c(C(F)(F)F)c2)CC1 (centres unmarked) [A61] | 0.371 µM |
| CCCC(C)N1CCC(N(CCCNC(=O)CCl)C(=O)Nc2cccc(C(F)(F)F)c2)CC1 (centres unmarked) [drawing 836] | > 53 µM |
| O=C(c1ccccc1O)N1CCC(c2nc3ccccc3s2)CC1 [D29] | > 67.6 µM |
| CN1CC(NC(=O)NC2CCN(Cc3ccccc3)CC2)c2ccccc2C1=O (centres unmarked) [B17] | 55.6 µM |
| Cc1ccc(NC(=O)NC2CCN(Cc3ccccc3)CC2)cc1C [B63] | > 67.6 µM |
| CC(c1cccc(O)c1)N1CCC(N(Cc2ccccc2)C(=O)Nc2cc(F)cc(C(F)(F)F)c2)CC1 (centres unmarked) [A218] | > 24 µM |
| O=C(Nc1cc(F)cc(C(F)(F)F)c1)N(Cc1ccccc1)C1CCN(Cc2cc[nH]n2)CC1 [A213] | > 22.5 µM |
| CCCC(C)N1CCC(N(Cc2ccccc2)C(=O)Nc2c(C)cc(Br)cc2C)CC1 (centres unmarked) [A265] | > 65.7 µM |
| O=C(Nc1ccc2c(c1)OCCO2)N(Cc1ccco1)C1CCN(Cc2ccccc2)CC1 [B115] | > 74.6 µM |
| CCCC(C)N1CCC(N(Cc2ccccc2)C(=O)Nc2ccc(C(F)(F)F)cc2)CC1 (centres unmarked) [A41] | 0.237 µM |
| CCN1CCC(N(Cc2ccco2)C(=O)Nc2cc(Cl)ccc2C)CC1 [B78] | > 67.6 µM |
| CCCC(C)N1CCC(N(Cc2ccccc2)C(=O)Nc2ccc(Oc3ccc(Cl)cc3)cc2)CC1 (centres unmarked) [A22] | 0.131 µM |
| O=C(c1ccc(F)cc1)N1CCCC(c2nc3ccccc3s2)C1 (centres unmarked) [D16] | > 48.7 µM |
| O=C(c1ccccc1F)N1CCC(c2nc3ccccc3s2)CC1 [D13] | 45.3 µM |
| O=C(Nc1cc(F)cc(C(F)(F)F)c1)N(Cc1ccccc1)C1CCN(Cc2ccc(Cc3ccccc3)cc2)CC1 [A211] | > 21.8 µM |
| CCCC(C)N1CCC(N(Cc2ccccc2NC(=O)CCl)C(=O)Nc2cccc(C(F)(F)F)c2)CC1 (centres unmarked) [A38] | 0.208 µM |
| CCCC(C)N1CCC(N(Cc2ccccc2)C(=O)Nc2ccccc2N2CCOCC2)CC1 (centres unmarked) [A243] | > 52.8 µM |
| COc1ccc(C(=O)N2CCC(c3nc4ccccc4s3)CC2)cc1OC [D19] | > 62.9 µM |
| CCOC(=O)c1ccccc1NC(=O)N(C(C)C)C1CCN(C(C)=O)CC1 [B66] | > 67.6 µM |

| Compound | IC50 |
| --- | --- |
| O=C(Nc1cccc(SC(F)(F)F)c1)NC1CCN(Cc2ccccc2)CC1 [B8] | 16.6 µM |
| CCCCN1CCC(N(Cc2ccccc2)C(=O)Nc2cnn(C)c2)CC1 [A284] | > 72.3 µM |
| CCCCN(C(=O)Nc1ccc(F)c(C(F)(F)F)c1)C1CCN(C(C)CCC)CC1 (centres unmarked) [A87] | 1.01 µM |
| COc1cc(CN2CCC(NC(=O)Nc3ccccc3)CC2)cc(OC)c1OC [B45] | > 65.5 µM |
| CCCC(C)N1CCC(N(Cc2ccccc2)C(=O)Nc2ccc3c(c2)OCO3)CC1 (centres unmarked) [A86] | 0.991 µM |
| CCCC(C)N1CCC(N(Cc2ccccc2)C(=O)Nc2ccc(C(=O)OC)cc2I)CC1 (centres unmarked) [A190] | 37.8 µM |
| O=C(Nc1cccc(Cl)c1)NC1CCN(Cc2ccccc2)CC1 [B110] | > 73.1 µM |
| CCCC(C)N1CCC(N(Cc2ccccc2)C(=O)Nc2ccc(C(N)=O)cc2)CC1 (centres unmarked) [A258] | > 62.2 µM |
| CCCC(C)N1CCC(N(Cc2ccccc2)C(=O)Nc2ccc(CN(C)C)cc2)CC1 (centres unmarked) [A236] | > 45.4 µM |
| C#CCCCN1CCC(N(Cc2ccccc2NC(=O)CC)C(=O)Nc2ccc(Cl)c(Cl)c2)CC1 [A200] | > 15 µM |
| Cc1cc(C)cc(C(=O)N2CCCC(c3nc4ccccc4s3)C2)c1 (centres unmarked) [D32] | > 67.6 µM |
| CC1CN(Cc2ccccc2)CCC1N(C)C(=O)NC1C(=O)N(c2ccccc2)N(C)C1C (centres unmarked) [B27] | > 28.1 µM |
| O=C(Nc1cc(F)cc(C(F)(F)F)c1)N(Cc1ccccc1)C1CCN(Cc2ccc[nH]2)CC1 [A215] | > 23.4 µM |
| CCCC(C)N1CCC(N(Cc2ccccc2)C(=O)Nc2cc(F)cc(Cl)c2)CC1 (centres unmarked) [A67] | 0.482 µM |
| C=CC(=O)Nc1cccc(CN(C(=O)Nc2cccc(C(F)(F)F)c2)C2CCN(C(C)CCC)CC2)c1 (centres unmarked) [drawing 840] | 0.11 µM |
| Cn1c(CN2CCC(N(Cc3ccccc3)C(=O)Nc3cc(F)cc(C(F)(F)F)c3)CC2)nc2ccccc21 [A203] | > 20.2 µM |
| O=C(Nc1cc(F)cc(C(F)(F)F)c1)N(Cc1ccccc1)C1CCN(Cc2ccc(N3CCCC3)cc2)CC1 [A201] | > 19.1 µM |
| CCCCN1CCC(N(Cc2ccc3c(c2)OCO3)C(=O)Nc2ccc(F)c(C(F)(F)F)c2)CC1 [A114] | 2.35 µM |
| CC(c1ccc2c(c1)OCO2)N1CCC(N(Cc2ccccc2)C(=O)Nc2cc(F)cc(C(F)(F)F)c2)CC1 (centres unmarked) [A128] | 2.39 µM |
| Cc1cc(NC(=O)NC2CCN(Cc3ccccc3)CC2)c(C(F)(F)F)o1 [B119] | > 79 µM |

| Compound | IC50 |
| --- | --- |
| Cc1ccc(C(=O)N2CCC(c3nc4ccccc4s3)CC2)cc1 [D3] | 14.7 µM |
| COc1ccc(CN(C(=O)Nc2ccccc2C)C2CCN(C(C)=O)CC2)cc1 [B84] | > 67.6 µM |
| COc1ccc(C(=O)NCC(=O)N2CCC(c3nc4ccccc4s3)CC2)cc1OC [D26] | > 67.6 µM |
| O=C(c1cccc(F)c1)N1CCC(c2nc3ccccc3s2)CC1 [D12] | 31.4 µM |
| 1-Benzyl-1-(1-(Cyclohexylmethyl)Piperidin-4-yl)-3-(3-(Trifluoromethyl)Phenyl)Urea [A149] | 5.25 µM |
| CCN1CCC(N(Cc2ccco2)C(=O)Nc2ccc(F)c(Cl)c2)CC1 [B104] | > 70.9 µM |
| O=C(Nc1ccc(CN2CCCCC2)cc1)Nc1cc(C(F)(F)F)ccc1Cl [B29] | > 50.3 µM |
| O=C(Nc1cc(F)cc(C(F)(F)F)c1)N(Cc1ccccc1)C1CCN(Cc2cncn2Cc2ccccc2)CC1 [A208] | > 21.1 µM |
| CC(=O)N1CCC(N(Cc2ccco2)C(=O)Nc2ccc(Br)cc2)CC1 [B73] | > 67.6 µM |
| O=C(CN1CCN(Cc2ccccc2)CC1)Nc1cc(C(F)(F)F)ccc1Cl [B113] | > 74 µM |
| O=C(Nc1cc(F)cc(C(F)(F)F)c1)N(Cc1ccccc1)C1CCN(Cc2csc3ccccc23)CC1 [A212] | > 22.5 µM |
| CCCC(C)N1CCC(N(Cc2ccccc2)C(=O)Nc2cccc(N(C)C)c2)CC1 (centres unmarked) [A112] | 2.3 µM |
| COc1ccc(C(=O)N2CCC(NCc3ccc(C)cc3)CC2)cc1 [A194] | > 10.3 µM |
| 1-Benzyl-1-(1-(3,3-Dimethylbutyl)Piperidin-4-yl)-3-(3-(Trifluoromethyl)Phenyl)Urea [A298] | > 85 µM |
| O=C(Nc1cc(F)cc(C(F)(F)F)c1)N(Cc1ccccc1)C1CCN(Cc2ccccc2OCc2ccccc2)CC1 [A214] | > 22.9 µM |
| O=C(Nc1cccc(C(F)(F)F)c1)N[C@H]1CCN(Cc2ccccc2)C[C@@H]1O [A185] | 30 µM |
| CCCCN1CCC(N(Cc2ccccc2)C(=O)Nc2cccnc2)CC1 [A280] | > 70.1 µM |
| CCCC(C)N1CCC(N(Cc2ccccc2)C(=O)Nc2cc(F)ccc2F)CC1 (centres unmarked) [A281] | > 70.6 µM |
| O=C(Nc1cc(F)cc(C(F)(F)F)c1)N(Cc1ccccc1)C1CCN(Cc2ncc[nH]2)CC1 [A225] | > 26.1 µM |
